Test [1] addresses T1, NaV1.8 (Homo sapiens, UniProt Q9Y5Y9). As to the kind of experiment: Activity against NaV 1.8 channel (Table 3), optical membrane potential / electrophysiology assays. Type of test: cell-based. On the procedure: Compounds of the invention are useful as antagonists of voltage-gated sodium ion channels. Antagonist properties of test compounds were assessed as follows. Cells expressing the NaV of interest were placed into microtiter plates. After an incubation period, the cells were stained with fluorescent dyes sensitive to the transmembrane potential. The test compounds were added to the microtiter plate. The cells were stimulated with either a chemical or electrical means ti evoke a NaV dependent membrane potential change from unblocked channels, which was detected and measured with trans-membrane potential-sensitive dyes. Antagonists were detected as a decreased membrane potential response to the stimulus. The optical membrane potential assay utilized voltage-sensitive FRET sensors described by Gonzalez and Tsien (See, Gonzalez, J. E. and R. Y. Tsien (1995) “Voltage sensing by fluorescence resonance energy transfer in single cells” Biophys J 69(4): 1272-80, and Gonzalez, J. E. and R. Y. Tsien (1997) “Improved indicators of cell membrane potential that use fluorescence resonance energy transfer” Chem Biol 4(4): 269-77) in combination with instrumentation for measuring fluorescence changes such as the Voltage/Ion Probe Reader (VIPR®) (See, Gonzalez, J. E., K. Oades, et al. (1999) “Cell-based assays and instrumentation for screening ion-channel targets” Drug Discov Today 4(9): 431-439).
The following is an example of how NaV1.3 inhibition activity is measured using the optical membrane potential method #2. Other subtypes are performed in an analogous mode in a cell line expressing the NaV of interest.
HEK293 cells stably expressing NaV1.3 are plated into 96-well microtiter plates. After an appropriate incubation period, the cells are stained with the voltage sensitive dyes CC2-DMPE/DiSBAC2(3) as follows.
2X CC2-DMPE=20 μM CC2-DMPE: 10 mM CC2-DMPE is vortexed with an equivalent volume of 10% pluronic, followed by vortexing in required amount of HBSS containing 10 mM HEPES. Each cell plate will require 5 mL of 2X CC2-DMPE. 50 μL of 2X CC2-DMPE is to wells containing washed cells, resulting in a 10 μM final staining concentration. The cells are stained for 30 minutes in the dark at RT.
2X DISBAC2(3) with ABSC1=6 μM DISBAC2(3) and 1 mM ABSC1: The required amount of 10 mM DISBAC2(3) is added to a 50 ml conical tube and mixed with 1 μL 10% pluronic for each mL of solution to be made and vortexed together. Then HBSS/HEPES is added to make up 2X solution. Finally, the ABSC1 is added.
The 2X DiSBAC2(3) solution can be used to solvate compound plates. Note that compound plates are made at 2X drug concentration. Wash stained plate again, leaving residual volume of 50 μL. Add 50 uL/well of the 2X DiSBAC2(3) w/ABSC1. Stain for 30 minutes in the dark at RT.
The electrical stimulation instrument and methods of use are described in ION Channel Assay Methods PCT/US01/21652, herein incorporated by reference. The instrument comprises a microtiter plate handler, an optical system for exciting the coumarin dye while simultaneously recording the coumarin and oxonol emissions, a waveform generator, a current- or voltage-controlled amplifier, and a device for inserting electrodes in well. Under integrated computer control, this instrument passes user-programmed electrical stimulus protocols to cells within the wells of the microtiter plate.
Assay Protocol • 1. Insert or use electrodes into each well to be assayed. • 2. Use the current-controlled amplifier to deliver stimulation wave pulses for 3 s. Two seconds of pre-stimulus recording are performed to obtain the un-stimulated intensities. Five seconds of post-stimulation recording are performed to examine the relaxation to the resting state.
Data are analyzed and reported as normalized ratios of background-subtracted emission intensities measured in the 460 nm and 580 nm channels. Background intensities are then subtracted from each assay channel. […]

The target in test [2] is NaV1.3 (Homo sapiens, UniProt Q9NY46). The conditions noted are these: read-out: TTX IC50; cited from earlier work.
For test [3], the target named is NaV1.6 (Homo sapiens, UniProt Q9UQD0). The conditions noted are these: read-out: TTX IC50; cited from earlier work.
Test [4] addresses T1, NaV1.8. The following applies: read-out: TTX IC50; cited from earlier work.
The target in test [5] is NaV1.9 (Homo sapiens, UniProt Q9UI33). The conditions noted are these: read-out: TTX IC50; cited from earlier work.
For test [6], the target named is NaV1.1 (Homo sapiens, UniProt P35498). The following applies: read-out: TTX IC50; cited from earlier work.
Test [7] has as its target NaV1.2 (Homo sapiens, UniProt Q99250). The following applies: read-out: TTX IC50; cited from earlier work.

Read-outs that look alike come from different tables or passages of the source. Where only a bound is given, the exact number is not on record here.

This passage reports IC50 results from patent publication US8841483B2, “Compositions useful as inhibitors of voltage-gated sodium channels” (Vertex Pharmaceuticals Incorporated, priority 2006, dated 2014).

Chain of NaV1.3 (Q9NY46 whole entry, looked up): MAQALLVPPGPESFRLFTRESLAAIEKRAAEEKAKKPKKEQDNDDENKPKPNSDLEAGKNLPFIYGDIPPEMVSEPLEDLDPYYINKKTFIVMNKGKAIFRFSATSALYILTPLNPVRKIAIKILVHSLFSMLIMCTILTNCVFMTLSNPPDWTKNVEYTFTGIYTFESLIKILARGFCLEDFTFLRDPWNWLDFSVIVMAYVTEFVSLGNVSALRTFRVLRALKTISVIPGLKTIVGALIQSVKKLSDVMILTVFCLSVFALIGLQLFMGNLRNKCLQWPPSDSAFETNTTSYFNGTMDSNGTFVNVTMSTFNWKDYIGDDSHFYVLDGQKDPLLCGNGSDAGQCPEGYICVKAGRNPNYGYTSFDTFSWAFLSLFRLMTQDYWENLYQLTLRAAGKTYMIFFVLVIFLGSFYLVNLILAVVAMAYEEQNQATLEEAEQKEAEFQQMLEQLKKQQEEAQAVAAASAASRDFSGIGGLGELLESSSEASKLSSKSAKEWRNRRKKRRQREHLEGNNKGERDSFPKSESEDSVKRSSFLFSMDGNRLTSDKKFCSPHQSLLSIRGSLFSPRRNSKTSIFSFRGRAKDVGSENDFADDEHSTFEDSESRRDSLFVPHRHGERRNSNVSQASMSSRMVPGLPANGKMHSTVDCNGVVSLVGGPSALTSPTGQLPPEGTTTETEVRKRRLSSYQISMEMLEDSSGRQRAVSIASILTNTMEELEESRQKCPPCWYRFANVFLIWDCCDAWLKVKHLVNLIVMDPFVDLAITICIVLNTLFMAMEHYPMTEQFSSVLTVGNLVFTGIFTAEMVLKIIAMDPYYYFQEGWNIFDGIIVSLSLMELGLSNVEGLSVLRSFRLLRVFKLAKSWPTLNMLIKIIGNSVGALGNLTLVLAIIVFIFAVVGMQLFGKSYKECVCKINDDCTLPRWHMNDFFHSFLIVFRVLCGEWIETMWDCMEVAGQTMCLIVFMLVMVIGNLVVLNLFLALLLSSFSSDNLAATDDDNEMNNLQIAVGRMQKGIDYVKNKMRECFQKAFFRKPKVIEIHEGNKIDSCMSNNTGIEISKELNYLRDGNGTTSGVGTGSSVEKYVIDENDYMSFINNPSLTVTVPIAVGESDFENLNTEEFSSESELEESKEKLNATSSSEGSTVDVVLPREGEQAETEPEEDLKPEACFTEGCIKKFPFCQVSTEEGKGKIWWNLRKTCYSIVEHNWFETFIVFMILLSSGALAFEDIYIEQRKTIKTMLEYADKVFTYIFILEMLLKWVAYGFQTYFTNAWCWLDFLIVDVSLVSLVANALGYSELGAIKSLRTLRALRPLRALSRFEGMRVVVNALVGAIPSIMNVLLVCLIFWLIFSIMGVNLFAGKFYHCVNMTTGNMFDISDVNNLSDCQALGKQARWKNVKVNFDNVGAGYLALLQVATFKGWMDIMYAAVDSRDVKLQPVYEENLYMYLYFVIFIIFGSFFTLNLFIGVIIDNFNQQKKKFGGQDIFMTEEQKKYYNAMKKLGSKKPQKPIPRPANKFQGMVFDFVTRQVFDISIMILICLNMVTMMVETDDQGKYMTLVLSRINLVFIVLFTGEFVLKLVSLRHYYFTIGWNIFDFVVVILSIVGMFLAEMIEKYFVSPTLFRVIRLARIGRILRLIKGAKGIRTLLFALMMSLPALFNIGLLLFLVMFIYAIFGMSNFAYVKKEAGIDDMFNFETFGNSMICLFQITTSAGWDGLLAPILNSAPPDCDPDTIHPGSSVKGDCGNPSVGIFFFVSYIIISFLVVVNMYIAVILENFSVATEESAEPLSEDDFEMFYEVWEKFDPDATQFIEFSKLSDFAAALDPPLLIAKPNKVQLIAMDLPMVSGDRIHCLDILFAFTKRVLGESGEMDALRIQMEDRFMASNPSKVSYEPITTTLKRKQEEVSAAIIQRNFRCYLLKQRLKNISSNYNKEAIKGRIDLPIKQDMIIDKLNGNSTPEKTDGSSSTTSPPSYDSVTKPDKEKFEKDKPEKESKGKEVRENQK
Chain of NaV1.6 (Q9UQD0 whole entry, looked up): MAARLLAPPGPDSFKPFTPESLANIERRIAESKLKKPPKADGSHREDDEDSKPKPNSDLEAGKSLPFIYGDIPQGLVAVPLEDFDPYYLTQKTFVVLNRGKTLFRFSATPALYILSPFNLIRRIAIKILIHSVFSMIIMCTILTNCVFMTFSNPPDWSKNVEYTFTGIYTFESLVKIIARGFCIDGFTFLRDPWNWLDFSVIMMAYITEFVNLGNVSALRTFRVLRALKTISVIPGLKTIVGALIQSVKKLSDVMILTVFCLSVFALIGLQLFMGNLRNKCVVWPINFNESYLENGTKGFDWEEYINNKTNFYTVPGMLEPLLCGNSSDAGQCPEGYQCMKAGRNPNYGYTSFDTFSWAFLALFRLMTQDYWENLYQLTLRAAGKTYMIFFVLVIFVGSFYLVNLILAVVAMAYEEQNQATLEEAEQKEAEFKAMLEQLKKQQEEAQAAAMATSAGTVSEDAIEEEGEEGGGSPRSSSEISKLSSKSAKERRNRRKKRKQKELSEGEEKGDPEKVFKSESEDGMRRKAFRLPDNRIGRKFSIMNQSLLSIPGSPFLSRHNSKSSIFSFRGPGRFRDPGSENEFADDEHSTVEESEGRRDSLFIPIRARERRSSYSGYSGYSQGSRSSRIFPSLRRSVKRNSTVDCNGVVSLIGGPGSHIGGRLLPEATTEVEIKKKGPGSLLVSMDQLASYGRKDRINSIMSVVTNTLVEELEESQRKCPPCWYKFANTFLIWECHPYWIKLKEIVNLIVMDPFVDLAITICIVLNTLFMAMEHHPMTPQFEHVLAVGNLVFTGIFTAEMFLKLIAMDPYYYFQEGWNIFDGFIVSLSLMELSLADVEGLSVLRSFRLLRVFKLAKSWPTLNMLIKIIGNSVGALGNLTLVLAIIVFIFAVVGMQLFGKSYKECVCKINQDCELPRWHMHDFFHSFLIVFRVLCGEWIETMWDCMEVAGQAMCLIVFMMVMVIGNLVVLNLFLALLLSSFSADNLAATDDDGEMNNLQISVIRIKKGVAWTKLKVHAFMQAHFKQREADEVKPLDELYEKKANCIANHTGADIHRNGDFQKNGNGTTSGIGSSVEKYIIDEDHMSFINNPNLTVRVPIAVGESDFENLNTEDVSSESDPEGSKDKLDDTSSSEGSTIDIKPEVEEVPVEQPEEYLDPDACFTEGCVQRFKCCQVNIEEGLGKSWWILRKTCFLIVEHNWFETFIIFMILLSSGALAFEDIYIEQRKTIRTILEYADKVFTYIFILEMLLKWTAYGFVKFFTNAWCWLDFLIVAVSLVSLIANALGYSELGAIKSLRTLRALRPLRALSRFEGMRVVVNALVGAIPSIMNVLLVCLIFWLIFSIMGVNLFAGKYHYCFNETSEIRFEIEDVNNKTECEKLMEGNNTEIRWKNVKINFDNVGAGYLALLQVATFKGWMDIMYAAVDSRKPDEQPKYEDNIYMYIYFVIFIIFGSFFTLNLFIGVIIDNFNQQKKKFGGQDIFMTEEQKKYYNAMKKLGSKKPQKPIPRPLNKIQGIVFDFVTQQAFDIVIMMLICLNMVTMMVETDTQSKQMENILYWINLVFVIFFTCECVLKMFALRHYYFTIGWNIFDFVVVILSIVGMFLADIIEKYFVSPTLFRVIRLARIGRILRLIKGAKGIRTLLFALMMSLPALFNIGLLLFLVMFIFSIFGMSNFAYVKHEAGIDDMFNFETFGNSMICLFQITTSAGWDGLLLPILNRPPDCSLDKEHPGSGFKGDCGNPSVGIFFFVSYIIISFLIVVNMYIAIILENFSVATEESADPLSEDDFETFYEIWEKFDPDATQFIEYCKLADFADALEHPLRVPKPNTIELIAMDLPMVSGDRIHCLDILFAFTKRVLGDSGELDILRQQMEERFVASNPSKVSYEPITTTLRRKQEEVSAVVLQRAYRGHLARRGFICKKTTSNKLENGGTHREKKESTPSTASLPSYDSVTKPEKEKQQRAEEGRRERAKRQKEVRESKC

As usually defined, the IC50 is the midpoint of a concentration-inhibition curve. `CC(C)(C)c1ccc(C(=O)Nc2cccc(S(N)(=O)=O)c2)c(Oc2ccc(C(F)(F)F)cc2Cl)c1` [Compound 116]: the IC50 in test [1] was 2000 to 10000 nM.

As for `CCOc1ccc(C(=O)Nc2cccc(S(N)(=O)=O)c2)c(OCC)c1` [Compound 117], in test [1], the IC50 is greater than 10000 nM.

For the molecule `CC(C)(C)c1ccc(C(=O)Nc2cccc(S(N)(=O)=O)c2)c(Oc2ccc(C(N)=O)cc2)c1` [Compound 118], the IC50 in test [1] was greater than 10000 nM.

In the case of `Cc1cccc(Oc2cc(C(C)(C)C)ccc2C(=O)Nc2cccc(S(N)(=O)=O)c2)c1` [Compound 119], the IC50 in test [1] is less than 2000 nM.

With `NS(=O)(=O)c1cccc(NC(=O)c2ccc(Cl)cc2Cl)c1` [Compound 120], the IC50 in test [1] is greater than 10000 nM.

Regarding `CN(C)S(=O)(=O)c1cccc(NC(=O)c2ccc(C(C)(C)C)cc2Oc2ccc(F)cc2Cl)c1` [Compound 121], in test [1], the IC50 was less than 2000 nM.

`CC(=O)c1ccccc1C(=O)Nc1cccc(S(N)(=O)=O)c1` [Compound 122]: the IC50 in test [1] is greater than 10000 nM.

For `COc1ccc(C(=O)Nc2cccc(S(N)(=O)=O)c2)c(OC)c1` [Compound 123], in test [1], the IC50 is greater than 10000 nM.

With `Cc1cc(Oc2cc(C(C)(C)C)ccc2C(=O)Nc2cccc(S(N)(=O)=O)c2)cc(C)n1` [Compound 124], the IC50 in test [1] is greater than 10000 nM.

For `COC(=O)c1ccc(Oc2cc(C(C)(C)C)ccc2C(=O)Nc2cccc(S(N)(=O)=O)c2)cc1` [Compound 125], the IC50 in test [1] was less than 2000 nM.

Consider `CC(C)(C)NS(=O)(=O)c1cccc(NC(=O)c2ccc(C(C)(C)C)cc2Br)c1` [Compound 126], for which the IC50 in test [1] was 2000 to 10000 nM.

As for `CS(=O)(=O)c1ccc(C(=O)Nc2cccc(S(N)(=O)=O)c2)c(Cl)c1` [Compound 127], in test [1], the IC50 was greater than 10000 nM.

For the molecule `CC(=O)c1ccc(Oc2cc(C(C)(C)C)ccc2C(=O)Nc2cccc(S(N)(=O)=O)c2)cc1` [Compound 128], the IC50 in test [1] was less than 2000 nM.

For the molecule `CC(C)(C)c1ccc(C(=O)Nc2cccc(S(N)(=O)=O)c2)c(Oc2cc(C(F)(F)F)ncn2)c1` [Compound 129], in test [1], the 50% inhibitory concentration (IC50) was greater than 10000 nM.

Turning to `CC(C)(C)c1ccc(C(=O)Nc2cccc(S(N)(=O)=O)c2)c(Oc2ccc(C#N)cc2)c1` [Compound 130], the IC50 in test [1] was less than 2000 nM.

In the case of `CCCOc1ccccc1C(=O)Nc1cccc(S(N)(=O)=O)c1` [Compound 131], the IC50 in test [1] is greater than 10000 nM.

Regarding `CC(C)(C)c1ccc(C(=O)Nc2cccc(S(N)(=O)=O)c2)c(Oc2cccc(F)c2)c1` [Compound 132], the IC50 in test [1] is less than 2000 nM.

Turning to `COc1ccc(C(=O)Nc2cccc(S(N)(=O)=O)c2)c(C(F)(F)F)c1` [Compound 133], in test [1], the IC50 was greater than 10000 nM.

With `CC(C)(C)c1ccc(C(=O)Nc2cccc(S(N)(=O)=O)c2)c(Oc2cccc(C(F)(F)F)c2)c1` [Compound 134], the IC50 in test [1] was less than 2000 nM.

In the case of `CC(=O)c1cccc(Oc2cc(C(C)(C)C)ccc2C(=O)Nc2cccc(S(N)(=O)=O)c2)c1` [Compound 135], the IC50 in test [1] was less than 2000 nM.

As for `CC(C)(C)c1ccc(C(=O)Nc2cccc(S(N)(=O)=O)c2)c(Oc2cccc(N3CCOCC3)c2)c1` [Compound 136], in test [1], the IC50 was greater than 10000 nM.

Take `CCc1ccccc1C(=O)Nc1cccc(S(N)(=O)=O)c1` [Compound 137]: in test [1], the IC50 was greater than 10000 nM.

Consider `Cc1ncccc1Oc1cc(C(F)(F)F)ccc1C(=O)Nc1cccc(S(N)(=O)=O)c1` [Compound 138, 2-(2-methylpyridin-3-yloxy)-N-(3-sulfamoylphenyl)-4-(trifluoromethyl)benzamide], for which the IC50 in test [1] was less than 2000 nM.

Turning to `COc1cccc(Oc2cc(C(C)(C)C)ccc2C(=O)Nc2cccc(S(N)(=O)=O)c2)c1` [Compound 139], the IC50 in test [1] lay in the range of 2000 to 10000 nM.

As to `COc1cc(Cl)ccc1C(=O)Nc1cccc(S(N)(=O)=O)c1` [Compound 140], in test [1], the IC50 is greater than 10000 nM.

With `COc1ccc(C(=O)Nc2cccc(S(N)(=O)=O)c2)c(C)c1` [Compound 141], in test [1], the IC50 is greater than 10000 nM.

Regarding `Cc1ccc(C(=O)Nc2cccc(S(N)(=O)=O)c2)c(Br)c1` [Compound 142], the IC50 in test [1] is greater than 10000 nM.

Turning to `CC(C)(C)c1ccc(C(=O)Nc2cccc(S(N)(=O)=O)c2)c(Oc2ccc(C#N)cc2Cl)c1` [Compound 143], the IC50 in test [1] is less than 2000 nM.

In the case of `Cc1ccc(Oc2cc(C(C)(C)C)ccc2C(=O)Nc2cccc(S(N)(=O)=O)c2)cn1` [Compound 144], in test [1], the IC50 is less than 2000 nM.

Regarding `NC1=N[C@H](O)[C@H]2[C@H]3O[C@]4(O)O[C@@H]([C@@H](O)[C@@]2(N1)[C@@H]4O)[C@]3(O)CO` [TTX, tetrodotoxin], the IC50 in test [2] is 15 nM; in test [3] it was 6 nM; in test [4] it was greater than 50000 nM; in test [5], 1000 nM; in test [6] it was 10 nM; in test [7] it was 10 nM.
